This is an account of results in patent publication EP0443560A2, “HIV protease inhibitors” (priority 1990, dated 1991).

For the first test, the target named is T1, HIV protease (Human immunodeficiency virus type 1 group M subtype B, UniProt P04585).
T1 construct: HIV protease was expressed in E. coli [construct pBRT1 prt⁺; made in house; host or cells: E. coli
Put plainly: Recombinant HIV Protease HPLC Assay. In kind it is biochemical.
Conditions: not given
An excerpt: The procedure is based on the capacity of the test compound to inhibit enzymatic cleavage by HIV protease of a decapeptide (the substrate) having an amino acid sequence which includes a known HIV protease cleavage site of a HIV polyprotein; see H.G. Krausslich et al., Proc. Natl. Acad. Sci. USA, 86, 807 (1989). Details of this assay together with the results obtained for exemplified compounds of formula 1 are described in the examples hereinafter.
Recombinant HIV Protease HPLC Assay:
HIV protease was expressed in E. coli [construct pBRT1 prt⁺, see W.G. Farmerie et al., Science, 236, 305 (1987)], according to the following protocol: Unless stated otherwise, all solutions are aqueous solutions.
E. coli cells containing the pBRT1 prt⁺ plasmid were used to inoculate a seed culture media composed of Luria-Bertani Broth containing 100µg/mL of ampicillin. Flasks were incubated at 37° under agitation for 17 h. Production flasks containing sterile M9 broth, supplemented with 100µg/ml of ampicillin, were inoculated at a level of 1% (v/v) using the seed culture described above. Total volume in each production flask was 500 mL in a 2 L Erlenmeyer flask. Flasks were incubated at 37° under agitation until a cell concentration corresponding to an optical density (λ = […]) of 0.6 was reached (no dilution). This time span was routinely 3-4 h. Flasks were then supplemented with 5mM isopropylthiogalactoside (IPTG, Research Organics, Cleveland, Ohio, USA) and incubation was continued until the cell concentration reached an optical density of 0.2 at 16-fold dilution. Flasks were then supplemented with 1mM phenylmethylsulfonyl fluoride (PMSF) and rapidly chilled to 4°. The bacterial cells were recovered by centrifugation at 4°. The wet pellet was stored at -70°.
All steps below were performed at 4° unless otherwise indicated. Thawed cells were mixed with buffer A [50 mM tris(hydroxymethyl)[…] HCl(Tris-HCl, pH 7.4); 0.6 mM ethylenediaminetetraacetic acid (EDTA); 0.375 M NaCl, 0.2% Nonidet P-40 ® (BDH Chemicals Ltd., Poole, UK); 1mM PMSF], at a ratio of one part cells to nine parts buffer A. Diatomaceous earth (Celite 545 ® , John Manville, Lompoc, CA, USA) was added at a ratio of two parts to one part of wet cell weight. The resulting slurry was homogenized at high speed (ca. 20,000 rpm) on a Waring ® industrial blender for 8 x 15 sec. pulses. Cell debris/Celite ® was collected by centrifugation and the resulting pellet was extracted with 4.5 parts of buffer A to one part wet solids using the homogenization procedure described above. Supernatants from both homogenization steps were combined and soluble protein was precipitated by the addition of solid (NH₄)₂SO₄ to yield a final concentration of 75% saturation. This mixture was agitated for 60 min and the precipitate was recovered by centrifugation. The resulting pellet was suspended in buffer B [50mM Tris-HCl, pH 8; 30 mM NaCl; 1 mM DL-dithiothreitol(DTT); 1 mM EDTA; 1 mM PMSF; 10% glycerol], and dialyzed for 18h against the same buffer.
An aliquot of the dialyzed extract containing 150 mg of the protein was loaded onto a Sephadex A25 ® anion exchange column. (Pharmacia, Uppsala, Sweden) with bed dimensions of 70 cm length and 2.5 cm diameter. The sample was eluted isocratically with buffer B at a linear flow rate of 10 cm/h. Fractions containing HIV protease activity (see below for assay description) were combined, and soluble protein was precipitated by the addition of saturated aqueous (NH₄)₂SO₄ to yield a total (NH₄)₂SO₄ concentration of 85% saturation. Precipitated protein was removed by centrifugation and the resulting pellet was dissolved in buffer C [50 mM 2-(4-morpholino)ethanesulfonic acid (MES), pH 5.5; 150 mM NaCl; 1 mM DTT; 1 mM EDTA; 10% glycerol). This preparation was dialyzed for 18h against buffer C, and then frozen at -70°. All crude extracts were purified by chromatography in aliquots containing 150 mg of protein in the same manner as described above. […]
Take `CC(C)C[C@H](NC[C@H](Cc1ccccc1)NC(=O)OC(C)(C)C)C(=O)N[C@@H](CCC(=O)O)C(=O)NCCCc1ccccc1` [Example 1, Boc-PheΨ[CH₂NH]Leu-Glu-NHCH₂CH₂CH₂Ph]: the IC50 worked out at 36 nM.

As to `COC(=O)CCC(NC(=O)CC(O)C(CC1CCCCC1)NC(=O)OC(C)(C)C)C(=O)NCCCc1ccccc1` (stereo not drawn) [Example 5, Boc-ACHPA-Glu(OMe)-NHCH₂CH₂CH₂Ph], the IC50 is 110 nM.

Regarding `CCC(CC)C(=O)NC(CC1CCCCC1)C(O)CC(=O)NC(CCC(=O)O)C(=O)NCCc1ccccc1` (stereo not drawn) [Example 6, (C₂H₅)₂CHC(O)-ACHPA-Glu-NHCH₂CH₂Ph], the IC50 was determined as 93 nM.

With `O=C(O)CCC(NC(=O)CC(O)C(CC1CCCCC1)NC(=O)C1CCCCC1)C(=O)NCCc1ccccc1` (stereo not drawn) [Example 12, (Cyclohexylcarbonyl)-ACHPA-Glu-NHCH₂CH₂Ph], the IC50 worked out at 130 nM.

`CCCCCCCCNC(=O)C(CCC(=O)O)NC(=O)CC(O)C(CC1CCCCC1)NC(=O)OC(C)(C)C` (stereo not drawn) [Example 13, Boc-ACHPA-Glu-NH(CH₂)₇CH₃]: the IC50 amounted to 40 nM.

For the compound `CC(C)(C)OC(=O)NC(CC1CC1)C(O)CC(=O)NC(CCC(=O)O)C(=O)NCCCc1ccccc1` (stereo not drawn) [Example 18, Boc-ACPPA-Glu-NHCH₂CH₂CH₂Ph], the IC50 was 180 nM.

`CSc1ccc(CCNC(=O)C(CCC(=O)O)NC(=O)CC(O)C(CC2CCCCC2)NC(=O)OC(C)(C)C)cc1` (stereo not drawn) [Example 22, Boc-ACHPA-Glu-NHCH₂CH₂-(4MeS-Ph)]: the IC50 worked out at 18 nM.

`CC(C)(C)OC(=O)NC(CC1CCCCC1)C(O)CC(=O)NC(CCC(=O)O)C(=O)OCCCc1ccccc1` (stereo not drawn) [Example 25, Boc-ACHPA-Glu-OCH₂CH₂CH₂Ph]: the IC50 was 85 nM.

For the compound `CC(C)(C)NC(=O)NC(CC1CCCCC1)C(O)CC(=O)NC(CCC(=O)O)C(=O)NCCCc1ccccc1` (stereo not drawn) [Example 26, (CH₃)₃CNHCO-ACHPA-Glu-NHCH₂CH₂CH₂Ph], the IC50 was 120 nM.

`CC(C)(C)OC(=O)NC(CC1CCCCC1)C(O)CC(=O)NC(CCC(=O)O)C(=S)NCCCc1ccccc1` (stereo not drawn) [Example 31, Boc-ACHPA-GluΨ[CSNH]-NHCH₂CH₂CH₂Ph]: the IC50 is 380 nM.

On to `CC(C)(C)OC(=O)NC(C(O)CC(=O)NC(CCC(=O)O)C(=O)NCCCc1ccccc1)C(O)C1CCCCC1` (stereo not drawn) [Example 33, Boc-HACHPA-Glu-NHCH₂CH₂CH₂Ph], for which the IC50 turned out to be 7.7 nM.

Staying with this test, now noted: read-out: IC₅₀; recombinant HIV protease HPLC assay; values in parenthesis in text.
For `COC(=O)CC[C@H](NC(=O)C[C@H](O)[C@H](CC1CCCCC1)NC(=O)OC(C)(C)C)C(=O)NCCCc1ccc(F)cc1` [Boc-ACHPA-Glu(OMe)-NHCH₂CH₂CH₂-(4F-Ph)], the IC50 is 83 nM.

For `COC(=O)CC[C@H](NC(=O)C[C@H](O)[C@H](CC1CCCCC1)NC(=O)OC(C)(C)C)C(=O)NCCOc1ccccc1Cl` [Boc-ACHPA-Glu(OMe)-NHCH₂CH₂O-(2Cl-Ph)], the IC50 came to 140 nM.

Turning to `CC(C)(C)OC(=O)N[C@@H](CC1CCCCC1)[C@@H](O)CC(=O)N[C@@H](CCC(=O)O)C(=O)NCCc1ccc(Cl)cc1` [Boc-ACHPA-Glu-NHCH₂CH₂-(4-Cl-Ph)], the IC50 came to 12 nM.

Turning to `CC(C)(C)OC(=O)N[C@@H](CC1CCCCC1)[C@@H](O)CC(=O)N[C@@H](CCC(=O)O)C(=O)NCCCc1ccc(F)cc1` [Boc-ACHPA-Glu-NHCH₂CH₂CH₂-(4F-Ph)], the IC50 stood at 5.6 nM.

`CC(C)(C)OC(=O)N[C@@H](CC1CCCCC1)[C@@H](O)CC(=O)N[C@@H](CCC(=O)O)C(=O)NCCOc1ccccc1Cl` [Boc-ACHPA-Glu-NHCH₂CH₂O-(2Cl-Ph)]: the IC50 came to 6.6 nM.

Still in this test, the particulars now being: recombinant HIV protease HPLC assay; values in parenthesis in text; read-out: IC₅₀.
Take `COC(=O)CCC(NC(=O)CC(O)C(CC1CCCCC1)NC(=O)OC(C)(C)C)C(=O)NCCc1ccc(SC)cc1` (stereo not drawn) [Boc-ACHPA-Glu(OMe)-NHCH₂CH₂-(4MeS-Ph)]: the IC50 turned out to be 91 nM.

As to `COC(=O)CC[C@H](NC(=O)C[C@H](O)[C@H](CC1CCCCC1)NC(=O)OC(C)(C)C)C(=O)NCCOCc1ccccc1` [Boc-ACHPA-Glu(OMe)-NHCH₂CH₂OBzl], the IC50 came to 260 nM.

As to `COc1ccc(CCNC(=O)[C@H](CCC(=O)O)NC(=O)C[C@H](O)[C@H](CC2CCCCC2)NC(=O)OC(C)(C)C)cc1` [Boc-ACHPA-Glu-NHCH₂CH₂-(4-MeO-Ph)], the IC50 came out at 33 nM.

Regarding `CC(C)(C)OC(=O)N[C@@H](CC1CCCCC1)[C@@H](O)CC(=O)N[C@@H](CCC(=O)O)C(=O)NCCCc1ccco1` [Boc-ACHPA-Glu-NHCH₂CH₂CH₂-(2-furyl)], the IC50 came to 25 nM.

Turning to `CC(C)(C)OC(=O)N[C@@H](CC1CCCCC1)[C@@H](O)CC(=O)N[C@@H](CCC(=O)O)C(=O)NCCCc1cccs1` [Boc-ACHPA-Glu-NHCH₂CH₂CH₂-(2-thienyl)], the IC50 is 33 nM.

Turning to `CC(C)(C)OC(=O)NC(CC1CCCCC1)C(O)CC(=O)NC(CCC(=O)O)C(=O)NCCOCc1ccccc1` (stereo not drawn) [Boc-ACHPA-Glu-NHCH₂CH₂OBzl], the IC50 was found to be 7.1 nM.

Take `CC(C)(C)OC(=O)N[C@@H](CC1CCCCC1)[C@@H](O)CC(=O)N[C@@H](CCC(=O)O)C(=O)NCCOc1ccccc1` [Boc-ACHPA-Glu-NHCH₂CH₂OPh]: the IC50 came out at 8.6 nM.

Consider `CC(C[C@H](NC(=O)C[C@H](O)[C@H](CC1CCCCC1)NC(=O)OC(C)(C)C)C(=O)NCCCc1ccccc1)C(=O)O` (stereo partly drawn) [Boc-ACHPA-{(S)-NHCH[CH₂CH(CH₃)COOH]}C(O)-NHCH₂CH₂CH₂Ph], for which the IC50 was found to be 18 nM.

In the case of `COC(=O)CC[C@H](NC(=O)CC[C@H](O)[C@H](CC1CCCCC1)NC(=O)OC(C)(C)C)C(=O)NCCCc1ccccc1` [Boc-ChaΨ[CH(OH)CH₂]Gly-Glu(OMe)-NHCH₂CH₂CH₂Ph], the IC50 was 600 nM.

As to `CC(C)(C)OC(=O)N[C@@H](CC1CCCCC1)[C@@H](O)CCC(=O)N[C@@H](CCC(=O)O)C(=O)NCCCc1ccccc1` [Boc-ChaΨ[CH(OH)CH₂]Gly-Glu-NHCH₂CH₂CH₂Ph], the IC50 turned out to be 14 nM.

In the case of `COC(=O)CC[C@H](NC(=O)C[C@H](O)[C@@H](NC(=O)OC(C)(C)C)[C@@H](O)C1CCCCC1)C(=O)NCCCc1ccccc1` [Boc-HACHPA-Glu(OMe)-NHCH₂CH₂CH₂Ph], the IC50 worked out at 120 nM.

Turning to `CC(C)(C)OC(=O)N[C@H](CN[C@@H](CC1CC1)C(=O)N[C@@H](CCC(=O)O)C(=O)NCCc1ccccc1)Cc1ccccc1` [Boc-PheΨ[CH₂NH]Cpa-Glu-NHCH₂CH₂Ph], the IC50 is 16 nM.

`CCCC[C@H](NC[C@H](Cc1ccccc1)NC(=O)OC(C)(C)C)C(=O)N[C@@H](CCC(=O)O)C(=O)NCCCc1ccccc1` [Boc-PheΨ[CH₂NH]Nle-Glu-NHCH₂CH₂CH₂Ph]: the IC50 is 12 nM.

Take `CC(C)[C@H](NC[C@H](Cc1ccccc1)NC(=O)OC(C)(C)C)C(=O)N[C@@H](CCC(=O)O)C(=O)NCCCc1ccccc1` [Boc-PheΨ[CH₂NH]Val-Glu-NHCH₂CH₂₂CH₂Ph]: the IC50 was 30 nM.

In the case of `CC(=O)N[C@@H](CC1CCCCC1)[C@@H](O)CC(=O)N[C@@H](CCC(=O)O)C(=O)NCCCc1ccccc1` [CH₃C(O)-ACHPA-Glu-NHCH₂CH₂CH₂Ph], the IC50 is 160 nM.

As for `COC(=O)CC[C@H](NC(=O)C[C@H](O)[C@H](CC1CCCCC1)NC(=O)OC(C)C)C(=O)NCCOCc1ccccc1` [Ipoc-ACHPA-Glu(OMe)-NHCH₂CH₂OBzl], the IC50 was 150 nM.

For `CC(C)OC(=O)N[C@@H](CC1CCCCC1)[C@@H](O)CC(=O)N[C@@H](CCC(=O)O)C(=O)NCCCc1ccccc1` [Ipoc-ACHPA-Glu-NH-CH₂CH₂CH₂Ph], the IC50 was found to be 6.3 nM.

In the case of `COC(=O)N[C@@H](CC1CCCCC1)[C@@H](O)CC(=O)N[C@@H](CCC(=O)O)C(=O)NCCCc1ccccc1` [Moc-ACHPA-Glu-NHCH₂CH₂CH₂Ph], the IC50 was found to be 15 nM.

Take “Boc(4F-Phe)Ψ[CH₂NH]Cpa-Glu-NHCH₂CH₂-(4F-Ph)”: the IC50 came to 15 nM.

For the compound Boc-AHDHA-Glu-NHCH₂CH₂CH₂Ph, the IC50 is 32 nM.
